Experimental data from PubChem BioAssay (NCI).
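A five-concentration, 48-hour dose response in 96-well plates underlies each endpoint, interpolated linearly between surrounding concentrations. TGI: total growth inhibition.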

Assays:
Assay in all cases: DTP human tumour cell line panel, 48 h
[1] = system: RPMI-8226 leukemia
[2] = system: SF-295 CNS
[3] = system: ACHN renal
[4] = system: SF-268 CNS
[5] = system: NCI-H522 lung
[6] = system: KM12 colon
[7] = system: BT-549 breast
[8] = system: UACC-62 melanoma
[9] = system: NCI-H23 lung
[10] = system: A498 renal
[11] = system: SK-MEL-28 melanoma
[12] = system: HOP-62 NSCLC
[13] = system: NCI-H226 lung
[14] = system: OVCAR-3 ovarian
[15] = system: CCRF-CEM leukemia
[16] = system: COLO 205 colon
[17] = system: HS 578T breast
[18] = system: SNB-75 CNS
[19] = system: IGROV1 ovarian
[20] = system: MOLT-4 leukemia
[21] = system: MDA-MB-435
[22] = system: SW-620 colon
[23] = system: SN12C renal
[24] = system: SK-OV-3 ovarian
[25] = system: T-47D breast
[26] = system: SK-MEL-5 melanoma
[27] = system: MCF7 breast
[28] = system: HCT-15 colon
[29] = system: RXF 393 renal
[30] = system: PC-3 prostate
[31] = system: M14 melanoma
[32] = system: HCC-2998 colon
[33] = system: OVCAR-8 ovarian
[34] = system: UACC-257 melanoma
[35] = system: MALME-3M melanoma
[36] = system: EKVX NSCLC
[37] = system: NCI-H460 lung
[38] = system: U251 CNS
[39] = system: HCT-116 colon
[40] = system: 786-0 renal
[41] = system: DU-145 prostate
[42] = system: CAKI-1 renal
[43] = system: LOX IMVI melanoma
[44] = system: SK-MEL-2 melanoma
[45] = system: A549 NSCLC
[46] = system: MDA-MB-231 breast
[47] = system: UO-31 renal
[48] = system: MDA-N
[49] = system: HT29 colon
[50] = system: HL-60(TB) leukemia
[51] = system: SR leukemia
[52] = system: OVCAR-4 ovarian
[53] = system: SNB-19 CNS
[54] = system: SF-539 CNS
[55] = system: OVCAR-5 ovarian
[56] = system: K-562 leukemia
[57] = system: TK-10 renal
[58] = system: HOP-92 NSCLC
[59] = system: NCI/ADR-RES ovarian

Measured: TGI

O=C(O)Cc1cccc2c(=O)c3cccc([N+](=O)[O-])c3oc12
not listed: [58] | [59]
> 100 µM: all other assays above

O=[N+]([O-])c1cccc(N=Nc2c(O)ccc3ccccc23)c1
75.5 µM: [53]
56.7 µM: [15]
not listed: [3] | [13] | [14] | [27] | [32] | [37] | [50] | [51] | [54]
> 100 µM: all other assays above
